Peptide text beside a SMILES is read from it.

The subject of the series is healthy male volunteers. As to the kind of experiment: Phase 1 single rising dose clinical safety study. Format: in vivo, human. The source says:
Primary objective: to study the safety and tolerability of F991 at increasing single dose levels in healthy male volunteers
Design: This study was a double-blind, placebo-controlled, single rising dose study in two alternating panels of eight healthy male volunteers. In each panel, two volunteers received placebo throughout the study and the other six volunteers received three increasing single doses of F991.
Safety assessments: vital signs; adverse events (including eyesight); ECG four times each period; clinical laboratory: on admission for each period
Panel I: period 1: 0.08 mg/kg F991 or placebo iv infusion • period 2: 0.8 mg/kg F991 or placebo iv infusion • period 3: 3.2 mg/kg F991 or placebo iv infusion
Panel II: period 1: 0.32 mg/kg F991 or placebo iv infusion • period 2: 1.6 mg/kg F991 or placebo iv infusion • period 3: 6.4 mg/kg F991 or placebo iv infusion Criteria for Evaluation
Safety: adverse events, clinical laboratory test results, ECG recordings, vital signs and physical examination

Setting [1] is: single i.v. doses 0.08-6.4 mg/kg.

Regarding `CC(C)C[C@H](NC(=O)[C@H](CS)NC(=O)[C@H](CS)NC(=O)[C@H](Cc1c[nH]cn1)NC(=O)CNC(=O)[C@H](CO)NC(=O)[C@H](Cc1c[nH]c2ccccc12)NC(=O)[C@H](Cc1c[nH]cn1)NC(=O)[C@H](C)N)C(=O)O` [F991] (H-AHWSGHCCL-OH), the safety and tolerability entry (I.V. single rising doses up to 6.4 mg/kg) is “safe and well tolerated”. Under setting [1], the “SAEs during the study” value is listed as “no SAEs”; the “clinical laboratory data, vital signs, ECG and physical examination” value was “no clinically significant abnormalities”; the “correlation between dose and number, frequency and intensity of AEs” value was “No correlation”; the “most frequently reported AEs for volunteers on active drug” value is “eye disorders”.
